Data as given in patent US10759816B2, “Heterocyclic compounds as RSV inhibitors” (Enanta Pharmaceuticals, Inc., priority 2016, dated 2020).

System: genotype A, "Long" strain RSV
Assay: RSV-A in vitro cytoprotection assay in HEp-2 cells (ATPlite readout of cell viability)
Type: cell-based, Human respiratory syncytial virus
Conditions: human respiratory syncytial virus, HEp-2, HEp-2 cells, genotype A “Long” strain RSV, cytoprotection; read-out: Human RSV-A (“Long” strain) EC50
Outline: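 HEp-2 cells (8,000/well) given 2-fold compound dilutions in duplicate, then infected with RSV-A Long strain stock; viability read by ATPlite luminescence after 4 days. EC50 derived from cytoprotection; cytotoxicity measured on parallel uninfected plate.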

SMILES | EC50 [µM]
Cc1cccc(F)c1NC(=O)c1cc2c(s1)-c1ccccc1N(C(=O)c1cccc(N3CCC4(COC4)C3)n1)CC2 [Example 427] | > 0.8
Cc1cccc(F)c1NC(=O)c1cc2c(s1)-c1ccccc1N(C(=O)c1cccc(N3CC4(C3)CS(=O)(=O)C4)n1)CC2 [Example 428] | > 0.8
Cc1cccc(F)c1NC(=O)c1cc2c(s1)-c1ccccc1N(C(=O)c1cccc(N3C[C@H]4C[C@@H]3CO4)n1)CC2 [Example 429] | < 0.4
Cc1cccc(F)c1NC(=O)c1cc2c(s1)-c1ccccc1N(C(=O)c1cccc(N3C[C@@H]4C[C@H]3CO4)n1)CC2 [Example 430] | < 0.4
Cc1cccc(F)c1NC(=O)c1cc2c(s1)-c1ccccc1N(C(=O)c1cccc(N3CCS(=O)(=O)C(C)(C)C3)n1)CC2 [Example 431] | < 0.4
Cc1cccc(F)c1NC(=O)c1cc2c(s1)-c1ccccc1N(C(=O)c1cccc(N3CCS(=O)(=O)CC3C)n1)CC2 (centres unmarked) [Example 432] | < 0.4
Cc1cccc(F)c1NC(=O)c1cc2c(s1)-c1ccccc1N(C(=O)c1cccc(N3CCS(=O)(=O)c4ccccc4[C@H]3C)n1)CC2 [Example 433] | > 0.8
Cc1cccc(F)c1NC(=O)c1cc2c(s1)-c1ccccc1N(C(=O)c1cccc(N3CCS(=O)(=O)c4ccccc4[C@@H]3C)n1)CC2 [Example 434] | > 0.8
Cc1cccc(F)c1NC(=O)c1cc2c(s1)-c1ccccc1N(C(=O)c1cccc(N3CCS(=O)(=O)c4c(F)cccc4C3)n1)CC2 [Example 435] | < 0.4
Cc1cccc(F)c1NC(=O)c1cc2c(s1)-c1ccccc1N(C(=O)c1cccc(N3CCS(=O)(=O)c4ccc(F)cc4C3)n1)CC2 [Example 436] | < 0.4
COc1ccc2c(c1)S(=O)(=O)CCN(c1cccc(C(=O)N3CCc4cc(C(=O)Nc5c(C)cccc5F)sc4-c4ccccc43)n1)C2 [Example 437] | < 0.4
Cc1cccc(F)c1NC(=O)c1cc2c(s1)-c1ccccc1N(C(=O)c1cccc(NC3CCS(=O)(=O)C3)n1)CC2 (centres unmarked) [Example 438] | < 0.4
Cc1cccc(F)c1NC(=O)c1cc2c(s1)-c1ccccc1N(C(=O)c1cccc(N(C)C3CCS(=O)(=O)C3)n1)CC2 (centres unmarked) [Example 439] | > 0.8
Cc1cccc(F)c1NC(=O)c1cc2c(s1)-c1ccccc1N(C(=O)c1cccc(NC3CS(=O)(=O)C3)n1)CC2 [Example 440] | < 0.4
Cc1cccc(F)c1NC(=O)c1cc2c(s1)-c1ccccc1N(C(=O)c1cccc(N3CC(S(C)(=O)=O)C3)n1)CC2 [Example 441] | > 0.8
Cc1cccc(F)c1NC(=O)c1cc2c(s1)-c1ccccc1N(C(=O)c1cccc(N3CC4CC5CC(C4)CC3C5)n1)CC2 [Example 442] | > 0.8
Cc1cccc(F)c1NC(=O)c1cc2c(s1)-c1ccccc1N(C(=O)c1cccc(N3CC4CCC(C4)C3)n1)CC2 [Example 443] | > 0.8
Cc1cccc(F)c1NC(=O)c1cc2c(s1)-c1ccccc1N(C(=O)c1cccc(N3CCCC(C)(O)CC3)n1)CC2 (centres unmarked) [Example 444] | < 0.4
Cc1cccc(F)c1NC(=O)c1cc2c(s1)-c1ccccc1N(C(=O)c1cccc(N3CCCCC(F)(F)C3)n1)CC2 [Example 445] | < 0.4
Cc1cccc(F)c1NC(=O)c1cc2c(s1)-c1ccccc1N(C(=O)c1cccc(N3CCNS(=O)(=O)CC3)n1)CC2 [Example 446] | < 0.4
Cc1cccc(F)c1NC(=O)c1cc2c(s1)-c1ccccc1N(C(=O)c1cccc(N3CCN(C)S(=O)(=O)CC3)n1)CC2 [Example 447] | < 0.4

SMILES | EC50 [µM]
Cc1cccc(F)c1NC(=O)c1cc2c(s1)-c1ccccc1N(C(=O)c1cccc(N3CCN(C4CC4)S(=O)(=O)CC3)n1)CC2 [Example 448] | < 0.4
Cc1cccc(F)c1NC(=O)c1cc2c(s1)-c1ccccc1N(C(=O)c1cccc(N3C[C@@H]4CC(F)(F)C[C@@H]4C3)n1)CC2 [Example 449] | > 0.8
Cc1cccc(F)c1NC(=O)c1cc2c(s1)-c1ccccc1N(C(=O)c1cccc(-n3c(=O)[nH]c4ccccc43)n1)CC2 [Example 450] | < 0.4
Cc1cccc(F)c1NC(=O)c1cc2c(s1)-c1ccccc1N(C(=O)c1cccc(N3C(=O)Cc4ccccc43)n1)CC2 [Example 451] | > 0.8
Cc1cccc(F)c1NC(=O)c1cc2c(s1)-c1ccccc1N(C(=O)c1cccc(NC3CCOCC3)n1)CC2 [Example 453] | < 0.4
Cc1cccc(F)c1NC(=O)c1cc2c(s1)-c1ccccc1N(C(=O)c1cccc(NC3CCS(=O)(=O)CC3)n1)CC2 [Example 454] | > 0.8
Cc1cccc(F)c1NC(=O)c1cc2c(s1)-c1ccccc1N(C(=O)c1cccc(N(C)C3CCS(=O)(=O)CC3)n1)CC2 [Example 455] | > 0.8
Cc1cccc(F)c1NC(=O)c1cc2c(s1)-c1ccccc1N(C(=O)c1cccc(N[C@@H]3CCOC3)n1)CC2 [Example 456] | < 0.4
Cc1cccc(F)c1NC(=O)c1cc2c(s1)-c1ccccc1N(C(=O)c1cccc(N[C@H]3CCOC3)n1)CC2 [Example 457] | < 0.4
Cc1cccc(F)c1NC(=O)c1cc2c(s1)-c1ccccc1N(C(=O)c1cccc(NC[C@@H]3CCCO3)n1)CC2 [Example 459] | < 0.4
Cc1cccc(F)c1NC(=O)c1cc2c(s1)-c1ccccc1N(C(=O)c1cccc(NC[C@H]3CCCO3)n1)CC2 [Example 460] | < 0.4
Cc1cccc(F)c1NC(=O)c1cc2c(s1)-c1ccccc1N(C(=O)c1cccc(N(C)CC3CCCO3)n1)CC2 (centres unmarked) [Example 461] | < 0.4
Cc1cccc(F)c1NC(=O)c1cc2c(s1)-c1ccccc1N(C(=O)c1cccc(NCC3CCCS3(=O)=O)n1)CC2 (centres unmarked) [Example 462] | < 0.4
Cc1cccc(F)c1NC(=O)c1cc2c(s1)-c1ccccc1N(C(=O)c1cccc(N(CCS(C)(=O)=O)C3CC3)n1)CC2 [Example 463] | 0.4 to 0.8
Cc1cccc(F)c1NC(=O)c1cc2c(s1)-c1ccccc1N(C(=O)c1cccc(NC(C)CS(C)(=O)=O)n1)CC2 (centres unmarked) [Example 464] | > 0.8
Cc1cccc(F)c1NC(=O)c1cc2c(s1)-c1ccccc1N(C(=O)c1cccc(NCC(C)(C)S(C)(=O)=O)n1)CC2 [Example 465] | 0.4 to 0.8
Cc1cccc(F)c1NC(=O)c1cc2c(s1)-c1ccccc1N(C(=O)c1cccc(NCC3(S(C)(=O)=O)CC3)n1)CC2 [Example 466] | < 0.4
Cc1cccc(F)c1NC(=O)c1cc2c(s1)-c1ccccc1N(C(=O)c1cccc(NCC3(CS(C)(=O)=O)CC3)n1)CC2 [Example 467] | 0.4 to 0.8
COC(C)(C)CN(C)c1cccc(C(=O)N2CCc3cc(C(=O)Nc4c(C)cccc4F)sc3-c3ccccc32)n1 [Example 470] | < 0.4
COCCN(c1cccc(C(=O)N2CCc3cc(C(=O)Nc4c(C)cccc4F)sc3-c3ccccc32)n1)C1CC1 [Example 471] | < 0.4
Cc1cccc(F)c1NC(=O)c1cc2c(s1)-c1ccccc1N(C(=O)c1cccc(N3CC4(CCS4(=O)=O)C3)n1)CC2 [Example 472] | > 0.8

SMILES | EC50 [µM]
Cc1cccc(F)c1NC(=O)c1cc2c(s1)-c1ccccc1N(C(=O)c1cccc(N3CCC[C@@H]3c3ccccc3)n1)CC2 [Example 473] | < 0.4
Cc1cccc(F)c1NC(=O)c1cc2c(s1)-c1ccccc1N(C(=O)c1cccc(N3CCC[C@@H]3C#N)n1)CC2 [Example 474] | < 0.4
Cc1cccc(F)c1NC(=O)c1cc2c(s1)-c1ccccc1N(C(=O)c1cccc(N3C(=O)OC[C@@H]3C(C)C)n1)CC2 [Example 475] | < 0.4
Cc1cccc(F)c1NC(=O)c1cc2c(s1)-c1ccccc1N(C(=O)c1cccc(NC3CS(=O)(=O)c4ccccc43)n1)CC2 (centres unmarked) [Example 476] | < 0.4
Cc1cccc(F)c1NC(=O)c1cc2c(s1)-c1ccccc1N(C(=O)c1cccc(N[C@H]3CCCNC3=O)n1)CC2 [Example 477] | > 0.8
Cc1cccc(F)c1NC(=O)c1cc2c(s1)-c1ccccc1N(C(=O)c1cccc(N3CCC[C@H](N)C3=O)n1)CC2 [Example 478] | > 0.8
Cc1cccc(F)c1NC(=O)c1cc2c(s1)-c1ccccc1N(C(=O)c1cccc(N3CCC[C@@H]3C)n1)CC2 [Example 479] | < 0.4
Cc1cccc(F)c1NC(=O)c1cc2c(s1)-c1ccccc1N(C(=O)c1cccc(N3C[C@H](O)C[C@@H]3C)n1)CC2 [Example 480] | < 0.4
Cc1cccc(F)c1NC(=O)c1cc2c(s1)-c1ccccc1N(C(=O)c1cccc(N(C[C@H]3CCCO3)C3CCC3)n1)CC2 [Example 481] | < 0.4
Cc1cccc(F)c1NC(=O)c1cc2c(s1)-c1ccccc1N(C(=O)c1cccc(N3CCC[C@@H]3C(C)C)n1)CC2 [Example 482] | > 0.8
Cc1cccc(F)c1NC(=O)c1cc2c(s1)-c1ccccc1N(C(=O)c1cccc(N3CCC[C@H]3C(C)C)n1)CC2 [Example 483] | < 0.4
Cc1cccc(F)c1NC(=O)c1cc2c(s1)-c1ccccc1N(C(=O)c1cccc(N3CCC[C@@H]3c3ccccn3)n1)CC2 [Example 484] | < 0.4
Cc1cccc(F)c1NC(=O)c1cc2c(s1)-c1ccccc1N(C(=O)c1cccc(N3CCC[C@H]3c3ccccn3)n1)CC2 [Example 485] | > 0.8
Cc1cccc(F)c1NC(=O)c1cc2c(s1)-c1ccccc1N(C(=O)c1cccc(N3CCC[C@@H]3Cc3ccccc3)n1)CC2 [Example 486] | > 0.8
Cc1cccc(F)c1NC(=O)c1cc2c(s1)-c1ccccc1N(C(=O)c1cccc(N3CCC[C@H]3Cc3ccccc3)n1)CC2 [Example 487] | 0.4 to 0.8
Cc1cccc(F)c1NC(=O)c1cc2c(s1)-c1ccc(F)cc1N(C(=O)c1cccc(N3CCOc4ccccc4C3)n1)CC2 [Example 488] | < 0.4
Cc1cccc(F)c1NC(=O)c1cc2c(s1)-c1c(F)cccc1N(C(=O)c1cccc(N3CCOc4ccccc4C3)n1)CC2 [Example 489] | < 0.4
COC[C@H]1CCCN1c1cccc(C(=O)N2CCc3cc(C(=O)Nc4c(C)cccc4F)sc3-c3ccc(F)cc32)n1 [Example 490] | < 0.4
Cc1cccc(F)c1NC(=O)c1cc2c(s1)-c1ccc(F)cc1N(C(=O)c1cccc(N(C)C[C@H]3CCCO3)n1)CC2 [Example 491] | < 0.4
Cc1cccc(F)c1NC(=O)c1cc2c(s1)-c1ccc(F)cc1N(C(=O)c1cccc(N3C(=O)CC[C@@H]3CN)n1)CC2 [Example 492] | > 0.8
